Reference: ChEMBL document CHEMBL3826897, “A facile and rapid access to resveratrol derivatives and their radioprotective activity” (Bioorg Med Chem Lett, 2016)

Columns and labels:
[1] = Stability of the compound; type: physicochemical
Thymocyte [2] = experiment: Toxicity in rat thymocytes assessed as increase in cell death at 100 uM measured after 4 hrs by flow cytometric analysis relative to control; type: cell-based
Thymocyte [3] = experiment: Toxicity in rat thymocytes assessed as increase in cell death at 1 uM measured after 4 hrs by flow cytometric analysis relative to control; type: cell-based
[4] = Radioprotective activity in rat thymocytes assessed as radio-modification factor pretreated at 10 uM followed by 2 Gy X-ray irradiation measured after 4 hrs by flow cytometric analysis relative to control; type: ADME, cell-based; conditions: thymocyte
[5] = Radioprotective activity in rat thymocytes assessed as radio-modification factor pretreated at 1 uM followed by 2 Gy X-ray irradiation measured after 4 hrs by flow cytometric analysis relative to control; type: ADME, cell-based; conditions: thymocyte
Thymocyte [6] = experiment: Toxicity in rat thymocytes assessed as increase in cell death at 1000 uM measured after 4 hrs by flow cytometric analysis relative to control; type: cell-based
Thymocyte [7] = experiment: Toxicity in rat thymocytes assessed as increase in cell death at 10 uM measured after 4 hrs by flow cytometric analysis relative to control; type: cell-based
[8] = Radioprotective activity in rat thymocytes assessed as radio-modification factor pretreated at 100 uM followed by 2 Gy X-ray irradiation measured after 4 hrs by flow cytometric analysis relative to control; type: ADME, cell-based; conditions: thymocyte
[9] = Radioprotective activity in rat thymocytes assessed as radio-modification factor pretreated at 1000 uM followed by 2 Gy X-ray irradiation measured after 4 hrs by flow cytometric analysis relative to control; type: ADME, cell-based; conditions: thymocyte

Stability [1] | Ratio [4] | Ratio [5] | Ratio [8] | Ratio [9] | SMILES | Ratio (Thymocyte [2]) | Ratio (Thymocyte [3]) | Ratio (Thymocyte [6]) | Ratio (Thymocyte [7])
Unstable |  |  |  |  | Nc1ccc(/C=C/c2cc(O)cc(O)c2)cc1 |  |  |  | 
Unstable |  |  |  |  | COc1cc(/C=C/c2ccc(Cl)cc2)cc(OC)c1 |  |  |  | 
 | 1.26 | 1.34 |  |  | COc1cc(/C=C/c2ccc(F)cc2)cc(OC)c1 | > 10 | < 5 | > 10 | < 5
 |  | 1.7 |  |  | Oc1ccc(/C=C/c2cc(O)ccc2O)cc1 | > 10 | < 5 | > 10 | > 10
 | 1.2 | 0.7 | 0.9 | 0.7 | COc1ccc(/C=C/c2cc(OC)ccc2OC)cc1 | < 5 | < 5 | < 5 | < 5
 | 1.2 | 1.4 | 1.1 | 0.2 | COc1cccc(/C=C/c2cc(OC)cc(OC)c2)c1 | < 5 | < 5 | < 5 | < 5
 | 1.1 | 1 | 1.1 | 1.5 | COc1ccc(/C=C/c2cccc(OC)c2)cc1 | < 5 | < 5 | < 5 | < 5
 | 1.3 | 1.3 | -0.2 | 0.2 | COc1ccc(/C=C/c2ccccc2OC)cc1 | < 5 | < 5 | 5 | < 5
 | 1 | 1.1 | 1.3 | 1.5 | COc1ccc(/C=C/c2ccc(OC)cc2)cc1 | < 5 | < 5 | < 5 | < 5
 | 1 | 0.8 | 0.7 | 0.5 | COc1ccc(/C=C/c2ccc(OC)c(OC)c2)cc1 | < 5 | < 5 | 5 | < 5
 | 1.3 | 2.2 | -0.3 |  | Oc1ccc(/C=C/c2ccc(O)c(O)c2)cc1 | < 5 | < 5 | > 10 | < 5
 | 0.7 | 0.4 | 0.5 |  | Oc1ccc(/C=C/c2ccccc2O)cc1 | 5 | 5 | > 10 | < 5
 | 1.3 | 1.2 | 0.4 |  | Oc1cc(O)cc(/C=C/c2ccccc2O)c1 | < 5 | < 5 | > 10 | < 5
Unstable |  |  |  |  | COc1cc(/C=C/c2ccc(C)cc2)cc(OC)c1 |  |  |  | 
 | 0.86 | 0.99 | 0.52 | 0.07 | COc1cc(/C=C/c2ccc(OC(C)=O)cc2)cc(OC)c1 | 5 | < 5 | 5 | 5
 | 0.47 | 0.56 |  |  | Oc1cc(O)cc(/C=C/c2ccc(Cl)cc2)c1 | > 10 | 5 | > 10 | 5
 | 0.6 | 0.8 | 0.3 | 0.1 | COc1cc(/C=C/c2ccccc2OC)cc(OC)c1 | < 5 | < 5 | 5 | < 5
 | 1.06 | 0.94 | 0.11 |  | Cc1ccc(/C=C/c2cc(O)cc(O)c2)cc1 | > 10 | < 5 | < 5 | < 5
Unstable |  |  |  |  | CC(=O)Nc1ccc(/C=C/c2cc(O)cc(O)c2)cc1 |  |  |  | 
 | 1.21 | 1.25 | 0.99 | 1.05 | COc1cc(/C=C/c2ccc(NC(C)=O)cc2)cc(OC)c1 | < 5 | < 5 | < 5 | < 5
 | 1 | 0.4 | 0.4 | 0.3 | COc1ccc(/C=C/c2ccc(OC)c(OC)c2)cc1OC | 5 | < 5 | 5 | < 5
 | 0.81 | 0.89 | -0.22 |  | Oc1cc(O)cc(/C=C/c2ccc(F)cc2)c1 | < 5 | < 5 | > 10 | < 5
 | 1.01 | 1.14 | 0.91 |  | CC(=O)Oc1ccc(/C=C/c2cc(O)cc(O)c2)cc1 | < 5 | < 5 | > 10 | < 5
Unstable |  |  |  |  | Oc1ccc(/C=C/c2ccc(O)c(O)c2)cc1O |  |  |  | 
 | 0.9 | 0.9 | 0.3 |  | Oc1cccc(/C=C/c2cc(O)cc(O)c2)c1 | < 5 | < 5 | > 10 | < 5
Unstable |  |  |  |  | COc1cc(/C=C/c2ccccc2)cc(OC)c1 [3,5-O-DIMETHYLPINOSYLVIN] |  |  |  | 
 | 1.2 | 1.4 | 1.6 | 0.6 | Oc1ccc(/C=C/c2cccc(O)c2)cc1 [(E)-3,4'-STILBENDIOL] | < 5 | < 5 | < 5 | < 5
Unstable |  |  |  |  | Oc1cc(O)cc(/C=C/c2ccccc2)c1 [PINOSYLVIN] |  |  |  | 
 | 1.06 | 0.93 | 0.59 | -0.34 | Oc1ccc(/C=C/c2cc(O)cc(O)c2)cc1 [RESVERATROL] | < 5 | < 5 | < 5 | < 5
 | 1.1 | 0.6 | 1.2 | 1.1 | Oc1ccc(/C=C/c2ccc(O)cc2)cc1 [TRANS-4,4'-DIHYDROXYSTILBENE] | < 5 | < 5 | < 5 | < 5

SMILES | Stability [1] | Ratio [4] | Ratio [5] | Ratio [8] | Ratio [9] | Ratio (Thymocyte [2]) | Ratio (Thymocyte [3]) | Ratio (Thymocyte [6]) | Ratio (Thymocyte [7])
COc1ccc(/C=C/c2cc(OC)cc(OC)c2)cc1 [TRISMETHOXYRESVERATROL] |  | 0.85 | 0.82 | 0.31 | -0.15 | < 5 | < 5 | 5 | < 5
